According to paper PMC10342010, “Djakonoviosides A, A1, A2, B1–B4 — Triterpene Monosulfated Tetra- and Pentaosides from the Sea Cucumber Cucumaria djakonovi: The First Finding of a Hemiketal Fragment in the Aglycones; Activity against Human Breast Cancer Cell Lines” (International Journal of Molecular Sciences, 2023):
Where two headings read alike, the source gives them in different places.

Columns and labels:
HEK293 cells = test: Cytotoxic activity (MTT assay); type: cell-based, human; details: HEK293, MTT, 24 h; read-out: Cytotoxicity, IC50 HEK293
Experimental: (§1) After incubation, the glycosides with medium were replaced by 100 μL of fresh medium. Then, 10 μL of MTT (3-(4,5-dimethylthiazol-2-yl)-2,5-diphenyltetrazolium bromide) (Sigma-Aldrich, St. Louis, MO, USA) stock solution (5 mg/mL) was added to each well, followed by incubation of the microplate for 4 h. After this procedure, 100 μL of SDS-HCl solution (1 g SDS/10 mL d-H2O/17 μ[…] HCl) was added to each well and incubated for 18 h. The absorbance of the converted dye formazan was determined with a Multiskan FC microplate photometer (Thermo Fisher Scientific, Waltham, MA, USA) at 570 nm.

T-47D cells = test: Cytotoxic activity (MTT assay); type: cell-based, human; details: T-47D, MTT, 24 h; read-out: Cytotoxicity, IC50 T-47D
Experimental: as §1

MCF-7 cells = test: Cytotoxic activity (MTT assay); type: cell-based, human; details: MCF-7, MTT, 24 h; read-out: Cytotoxicity, IC50 MCF-7
Experimental: as §1

human erythrocytes = test: Hemolytic activity; type: cell-based; details: 1 h incubation at 37 °C, 50% hemolysis
Experimental: Erythrocytes were obtained from human blood (AB(IV) Rh+) by centrifugation with phosphate-buffered saline (PBS) (pH 7.4) at 4 °C for 5 min by 450 g on a LABOFUGE 400R centrifuge (Heraeus, Hanau, Germany) three times. Then, the erythrocytes residue was resuspended in ice cold phosphate saline buffer (pH 7.4) to a final optical density of 1.5 at 700 nm and kept on ice. For the hemolytic assay, 180 µL of erythrocyte suspension was mixed with 20 µL of test compound solution, as well as control, chitonoidoside L [33], in V-bottom 96-well plates. After 1 h of incubation at 37 °C, the plates were exposed to centrifugation for 10 min at 900 g in a laboratory LMC-3000 centrifuge (Biosan, Riga, Latvia). Then, 100 µL of supernatant was carefully decanted and transferred into new flat plates. The values of the lysis of the erythrocytes were found by measuring the concentration of hemoglobin in the supernatant with a Multiskan FC microplate photometer (Thermo Fisher Scientific, Waltham, MA, USA); λ = 570 nm. […] All the experiments were carried out in triple repetitions; p < 0.01.

HL-60 cells = test: Cytotoxic activity (MTS assay); type: cell-based, human; details: HL-60, MTS, 24 h; read-out: Cytotoxicity, IC50 HL-60
Experimental: Then, the cells were incubated with 10 µL MTS ([3-(4,5-dimethylthiazol-2-yl)-5-(3-carboxymethoxyphenyl)-2-(4-sulfophenyl)-2H-tetrazolium) for 4 h, and the absorbance in each well was determined at 490/630 nm with a PHERA star FS plate reader (BMG Labtech, Ortenberg, Germany). The experiments were conducted in triplicate.

MDA-MB-231 cells [1] = test: Cytotoxic activity (MTT assay); type: cell-based, human; details: for IC50: MDA-MB-231, MTT, 24 h, read-out: Cytotoxicity, IC50 MDA-MB-231
Experimental: as §1

MDA-MB-231 cells [2] = test: Colony formation (clonogenic) assay; type: cell-based, human; details: MDA-MB-231, concentration 0.5 μM
Experimental: The influence of glycosides on the proliferation of MDA-MB-231 cells was analyzed by clonogenic assay. Briefly, MDA-MB-231 cells were cultured on 6-well plates at a density of 1 × 10^3 cells per well in control media (MEM media, 10% FBS, 10,000 U/mL of penicillin and 10,000 μg/mL of streptomycin) or in media supplemented with different concentrations of glycosides. Cells were incubated for one week at 37 °C with 5% CO2 until the cells in the control plates formed colonies that were visible to the eye and were of a substantial size (at least 50 cells per colony). For fixation and staining, the media were removed and the cells were washed twice with PBS. The colonies were fixed with methanol for 25 min, then washed with PBS and stained with 0.5% crystal violet solution for 25 min at room temperature. The plates were then washed with water and air dried.

MDA-MB-231 cells [3] = test: Wound scratch migration assay; type: cell-based, human; details: MDA-MB-231, 0.05 µM, 24 h
Excerpt: To analyze the influence of the tested compounds on tumor cell migration, MDA-MB-231 cells attached to the plate’s plastic bottom were separated by a silicone insert from special migration plates (Culture-insert 2 Well 24, ibiTreat); then, the insert was removed, leaving a gap of 500 ± 50 μm (according to the manufacturer’s data) between the cells. The cells were washed twice by PBS to remove cell debris and floating cells and loaded with a fluorescent probe, a (5,6)-carboxyfluorescein succinimidyl ester (CFDA SE) dye (LumiTrace CFDA SE kit, Lumiprobe, Moscow, Russia). The initial solution of CFDA SE at a concentration of 5 mM in DMSO was dissolved in PBS to prepare a 10 μM solution and was added to the cells for 5 min at 37 °C; then, the cells were washed twice with PBS, and fresh culture medium was added. After that, the cells were treated with various concentrations of glycosides and left for 8 and 24 h. Cells treated with culture medium only were used as control. Cell migration into the wound area was then observed under a fluorescence microscope (MIB-2-FL, LOMO, Saint Peterburg, Russia) with an objective ×10 magnification.

CO[C@@H]1[C@@H](O)[C@H](O[C@@H]2[C@@H](O)[C@H](O[C@H]3[C@H](O)[C@@H](O[C@H]4OC[C@H](O)[C@H](O)[C@@H]4O)[C@H](O[C@H]4[C@H](O[C@H]5CC[C@]6(C)[C@@H]7CC[C@]89C(=O)O[C@@](C)(C[C@@H](O)CC(C)C)[C@H]8[C@@H](OC(C)=O)C[C@@]9(C)C7=CC[C@H]6C5(C)C)OC[C@@H](OS(=O)(=O)O)[C@@H]4O)O[C@@H]3C)OC[C@H]2O)O[C@H](CO)[C@H]1O [frondoside D]
IC50 (HEK293 cells): 9.45 ± 0.78 µM | IC50 (T-47D cells): 11.8 ± 1.1 µM | IC50 (MCF-7 cells): 23.2 ± 0.92 µM | ED50, Erythrocytes (human erythrocytes): 9.22 ± 0.10 µM | IC50 (HL-60 cells): 18.08 ± 0.08 µM | IC50 (MDA-MB-231 cells [1]): 12 ± 1.28 µM

COC1C(O)C(CO)OC(OC2C(O)COC(OC3C(C)OC(OC4C(OC5CCC6(C)C7CCC89C(=O)OC(C)(CC(=O)CC(C)C)C8C(OC(C)=O)CC9(C)C7=CCC6C5(C)C)OCC(OS(=O)(=O)[O-])C4O)C(O)C3O)C2O)C1O.[Na+] (centres unmarked) [okhotoside A1-1]
IC50 (HEK293 cells): 3.17 ± 0.7 µM | IC50 (T-47D cells): 8.46 ± 0.65 µM | IC50 (MCF-7 cells): 8.34 ± 0.12 µM | ED50, Erythrocytes (human erythrocytes): 0.75 ± 0.09 µM | Inhibition of formation and growth of colonies, % of the control (MDA-MB-231 cells [2]): 70.76 ± 0.13% | IC50 (HL-60 cells): 2.52 ± 0.26 µM | EC50 (MDA-MB-231 cells [1]; MDA-MB-231, 24 h, read-out: Cytotoxic effect EC50 on MDA-MB-231, 24 h): 2.34 µM | EC50 (MDA-MB-231 cells [1]; MDA-MB-231, 48 h, read-out: Cytotoxic effect EC50 on MDA-MB-231, 48 h): 2.05 µM | EC50 (MDA-MB-231 cells [1]; MDA-MB-231, 72 h, read-out: Cytotoxic effect EC50 on MDA-MB-231, 72 h): 1.73 µM | IC50 (MDA-MB-231 cells [1]): 2.34 ± 0.53 µM | Inhibition of migration in comparison with control (MDA-MB-231 cells [3]): 74.76 ± 4.41%
